Laboratory results as given in ChEMBL document CHEMBL1201862, “PubChem BioAssay data set” (2004).
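Exposure lasted 48 hours, with cells grown in 96-well plates and compounds tested at five concentrations. Abbreviation: GI50, concentration required for 50% inhibition of growth.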 Calls of active or inactive are those of the source. No stated cut-off is given here; in the data, active = GI50 up to about 1.1 µM and inactive = higher.

Legend:
Experiment in all cases: inhibition of tumour cell growth, NCI panel, 48 h
LOX IMVI = test system: LOX IMVI
EKVX = test system: EKVX
CCRF-CEM = test system: CCRF-CEM
RPMI-8226 = test system: RPMI-8226
SW-620 = test system: SW-620
ACHN = test system: ACHN
SF-268 = test system: SF-268
K562 = test system: K562
MDA-MB-231 = test system: MDA-MB-231
SK-MEL-5 = test system: SK-MEL-5
Hs-578T = test system: Hs-578T
NCI-H522 = test system: NCI-H522
SF-295 = test system: SF-295
786-0 = test system: 786-0
M14 = test system: M14
SK-OV-3 = test system: SK-OV-3
SK-MEL-2 = test system: SK-MEL-2
SR = test system: SR

Measured: GI50

CCCCCCCCC[C@@H]1C[C@@H]2CCC3C(C(=O)OCCCCNC(=O)OCc4ccccc4)=C(C)N=C(N1)N32 (stereo partly specified)
inactive: LOX IMVI 2.09 µM | EKVX 2.72 µM | CCRF-CEM 2.52 µM | RPMI-8226 2.13 µM | SW-620 3.45 µM | ACHN 3.15 µM | SF-268 2.85 µM | K562 1.77 µM | MDA-MB-231 2.28 µM | SK-MEL-5 1.59 µM | Hs-578T 2.51 µM | NCI-H522 2.52 µM | SF-295 3.44 µM | 786-0 1.76 µM | M14 2.55 µM | SK-OV-3 3.2 µM | SK-MEL-2 1.92 µM

C=CCn1c(=S)sc2c(C(=O)OCC)c3c(C)cc(C)cn3c2c1=O
inactive: LOX IMVI > 100 µM | EKVX > 100 µM | CCRF-CEM > 100 µM | RPMI-8226 > 100 µM | SW-620 > 100 µM | ACHN > 100 µM | SR > 100 µM | SF-268 67.5 µM | K562 > 100 µM | SK-MEL-5 > 100 µM | NCI-H522 65.6 µM | SF-295 86.7 µM | 786-0 61.1 µM | M14 > 100 µM | SK-OV-3 90.8 µM | SK-MEL-2 > 100 µM

Cc1ccc(Nc2nc(-c3ccc(-c4ccc([N+](=O)[O-])cc4)o3)cs2)cc1
inactive: LOX IMVI 33.8 µM | RPMI-8226 12.6 µM | SW-620 95.3 µM | ACHN 34 µM | SR 11.4 µM | SF-268 > 100 µM | K562 14.2 µM | SF-295 33.2 µM | 786-0 68.5 µM | M14 > 100 µM | SK-OV-3 > 100 µM | SK-MEL-2 > 100 µM

C/C(=C\CO)CC/C=C(\C)CNc1ccccc1
inactive: LOX IMVI 57.7 µM | EKVX 23.9 µM | SW-620 50.2 µM | ACHN > 100 µM | SR 34.3 µM | SF-268 73.1 µM | K562 28.6 µM | MDA-MB-231 34.8 µM | SK-MEL-5 16 µM | Hs-578T 29.8 µM | NCI-H522 23.2 µM | SF-295 38.5 µM | 786-0 > 100 µM | M14 62.7 µM | SK-OV-3 > 100 µM

O=C(NNC(=S)NC1CCCCC1)c1csc(NC(=S)NC2CCCCC2)n1
inactive: LOX IMVI 4.9 µM | EKVX > 100 µM | CCRF-CEM 5.73 µM | RPMI-8226 9.86 µM | SW-620 5.13 µM | ACHN 3.54 µM | SR 5.4 µM | SF-268 6.21 µM | MDA-MB-231 17.8 µM | SK-MEL-5 2.01 µM | NCI-H522 12 µM | SF-295 5.87 µM | 786-0 7.64 µM | M14 3.46 µM | SK-OV-3 11.7 µM | SK-MEL-2 15.5 µM
